Measured values from patent publication US7211572B2 (Japan Tobacco Inc., priority 2003, dated 2007).
Counter-ions that a name gives are not always drawn.

Target: T1, HIV integrase (Human immunodeficiency virus type 1 group M subtype B, UniProt P12497, F1332H)
T1 construct: HIV integrase full length gene; made in house; host or cells: Escherichia coli BL21(DE3), plasmid pET21a-INH
Assay: Determination of enzyme (HIV integrase) inhibitory activity
Format: biochemical
Conditions: recombinant HIV integrase (F185H), strand transfer ELISA, absorbance at 450 nm
How it was run: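 Full-length integrase with F185H, expressed in E. coli and purified, was reacted for 60 min at 37 °C with compound and biotinylated donor DNA bound to streptavidin plates. Target DNA was added for 10 min, then anti-digoxigenin-peroxidase detection at A450; IC50 from % inhibition versus enzyme-free blank.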

SMILES	IC50
O=c1c(S(=O)(=O)c2ccccc2)cn2ccn(Cc3cccc(Cl)c3)c(=O)c2c1O [Example 237, 7-benzenesulfonyl-2-(3-chlorobenzyl)-9-hydroxy-2H-pyrido [1,2-a]pyrazine-1,8-dione]	10 to 100 nM
CC(C)(C)C(=O)c1cn2c(c(O)c1=O)C(=O)N(Cc1ccc(Cl)c(Cl)c1)CC2 [Example 238, 2-(3,4-dichlorobenzyl)-7-(2,2-dimethylpropionyl)-9-hydroxy-3,4-dihydro-2H-pyrido[1,2-a]pyrazine-1,8-dione]	< 10 nM
CC(C)C(=O)Nc1cn2ccn(Cc3cccc(Cl)c3)c(=O)c2c(O)c1=O [Example 239, N-[2-(3-chlorobenzyl)-9-hydroxy-1,8-dioxo-1,8-dihydro-2H-pyrido[1,2-a]pyrazin-7-yl]isobutyramide]	< 10 nM
CC(=O)Nc1cn2ccn(Cc3ccc(F)c(Cl)c3)c(=O)c2c(O)c1=O [Example 240, N-[2-(3-chloro-4-fluorobenzyl)-9-hydroxy-1,8-dioxo-1,8-dihydro-2H-pyrido[1,2-a]pyrazin-7-yl]acetamide]	< 10 nM
CC(C)(C)C(=O)c1cn2c(CO)cn(Cc3ccc(F)c(Cl)c3)c(=O)c2c(O)c1=O [Example 241, 2-(3-chloro-4-fluorobenzyl)-7-(2,2-dimethylpropionyl)-9-hydroxy-4-hydroxymethyl-2H-pyrido[1,2-a]pyrazine-1,8-dione hydrochloride]	< 10 nM
CCC(=O)Nc1cn2ccn(Cc3cccc(Cl)c3)c(=O)c2c(O)c1=O [Example 242, N-[2-(3-chlorobenzyl)-9-hydroxy-1,8-dioxo-1,8-dihydro-2H-pyrido[1,2-a]pyrazin-7-yl]propionamide]	< 10 nM
O=C(Cc1ccccc1)Nc1cn2ccn(Cc3cccc(Cl)c3)c(=O)c2c(O)c1=O [Example 243, N-[2-(3-chlorobenzyl)-9-hydroxy-1,8-dioxo-1,8-dihydro-2H-pyrido[1,2-a]pyrazin-7-yl]-2-phenylacetamide]	< 10 nM
CC(=O)c1cn2ccn(Cc3ccc(F)c(Cl)c3)c(=O)c2c(O)c1=O [Example 244, 7-acetyl-2-(3-chloro-4-fluorobenzyl)-9-hydroxy-2H-pyrido[1,2-a]pyrazine-1,8-dione hydrochloride]	< 10 nM
CSc1cn2ccn(Cc3cccc(Cl)c3)c(=O)c2c(O)c1=O [Example 245, 2-(3-chlorobenzyl)-9-hydroxy-7-methylsulfanyl-2H-pyrido[1,2-a]pyrazine-1,8-dione]	10 to 100 nM
CS(=O)(=O)c1cn2ccn(Cc3cccc(Cl)c3)c(=O)c2c(O)c1=O [Example 246, 2-(3-chlorobenzyl)-9-hydroxy-7-methanesulfonyl-2H-pyrido[1,2-a]pyrazine-1,8-dione]	10 to 100 nM
C[S+]([O-])c1cn2ccn(Cc3cccc(Cl)c3)c(=O)c2c(O)c1=O (stereo not drawn) [Example 247, 2-(3-chlorobenzyl)-9-hydroxy-7-methanesulfinyl-2H-pyrido[1,2-a]pyrazine-1,8-dione]	10 to 100 nM
Cc1cnc(-c2cn3c(c(O)c2=O)C(=O)N(Cc2cccc(Cl)c2)CC3)s1 [Example 248, 2-(3-chlorobenzyl)-9-hydroxy-7-(5-methylthiazol-2-yl)-3,4-dihydro-2H-pyrido[1,2-a]pyrazine-1,8-dione]	< 10 nM
O=C1c2c(O)c(=O)c(-c3nccs3)cn2CCN1Cc1ccc(Cl)c(Cl)c1 [Example 249, 2-(3,4-dichlorobenzyl)-9-hydroxy-7-(thiazol-2-yl)-3,4-dihydro-2H-pyrido[1,2-a]pyrazine-1,8-dione]	< 10 nM
O=c1ccn2ccn(Cc3ccc(F)cc3)c(=O)c2c1O [Example 250, 2-(4-fluorobenzyl)-9-hydroxy-2H-pyrido[1,2-a]pyrazine-1,8-dione hydrochloride]	10 to 100 nM
CC(C)(C)C(=O)c1cn2ccn(Cc3ccc(F)cc3)c(=O)c2c(O)c1=O [Example 251, 7-(2,2-dimethylpropionyl)-2-(4-fluorobenzyl)-9-hydroxy-2H-pyrido[1,2-a]pyrazine-1,8-dione hydrochloride]	< 10 nM
O=c1c(-c2nccs2)cn2ccn(Cc3ccc(F)cc3)c(=O)c2c1O [Example 252, 2-(4-fluorobenzyl)-9-hydroxy-7-(thiazol-2-yl)-2H-pyrido[1,2-a]pyrazine-1,8-dione hydrochloride]	< 10 nM
CNC(=O)c1cn2ccn(Cc3ccc(F)cc3)c(=O)c2c(O)c1=O [Example 253, N-methyl-2-(4-fluorobenzyl)-9-hydroxy-1,8-dioxo-1,8-dihydro-2H-pyrido[1,2-a]pyrazine-7-carboxamide]	< 10 nM
CC(C)(C)C(=O)c1cn2ccn(CCCc3c(F)cccc3Cl)c(=O)c2c(O)c1=O [Example 254, 2-[3-(2-chloro-6-fluorophenyl)propyl]-7-(2,2-dimethylpropionyl)-9-hydroxy-2H-pyrido[1,2-a]pyrazine-1,8-dione hydrochloride]	< 10 nM
Cc1csc(-c2cn3c(c(O)c2=O)C(=O)N(Cc2cccc(Cl)c2)CC3)n1 [Example 255, 2-(3-chlorobenzyl)-9-hydroxy-7-(4-methylthiazol-2-yl)-3,4-dihydro-2H-pyrido[1,2-a]pyrazine-1,8-dione]	< 10 nM
CCCC(=O)Nc1cn2ccn(Cc3cccc(Cl)c3)c(=O)c2c(O)c1=O [Example 256, N-[2-(3-chlorobenzyl)-9-hydroxy-1,8-dioxo-1,8-dihydro-2H-pyrido[1,2-a]pyrazin-7-yl]butyramide]	< 10 nM
O=C(Nc1cn2ccn(Cc3cccc(Cl)c3)c(=O)c2c(O)c1=O)c1ccccc1 [Example 257, N-[2-(3-chlorobenzyl)-9-hydroxy-1,8-dioxo-1,8-dihydro-2H-pyrido[1,2-a]pyrazin-7-yl]benzamide]	< 10 nM
O=C(CCc1ccccc1)Nc1cn2ccn(Cc3cccc(Cl)c3)c(=O)c2c(O)c1=O [Example 258, N-[2-(3-chlorobenzyl)-9-hydroxy-1,8-dioxo-1,8-dihydro-2H-pyrido[1,2-a]pyrazin-7-yl]-3-phenylpropionamide]	< 10 nM
CC(=O)N(C)c1cn2ccn(Cc3cccc(Cl)c3)c(=O)c2c(O)c1=O [Example 259, N-[2-(3-chlorobenzyl)-9-hydroxy-1,8-dioxo-1,8-dihydro-2H-pyrido[1,2-a]pyrazin-7-yl]-N-methylacetamide]	< 10 nM
COCC(=O)Nc1cn2ccn(Cc3cccc(Cl)c3)c(=O)c2c(O)c1=O [Example 260, N-[2-(3-chlorobenzyl)-9-hydroxy-1,8-dioxo-1,8-dihydro-2H-pyrido[1,2-a]pyrazin-7-yl]-2-methoxyacetamide]	< 10 nM
COC(=O)c1cn2c(c(O)c1=O)C(=O)N(Cc1cccc(Cl)c1)CC2 [Example 261, methyl 2-(3-chlorobenzyl)-9-hydroxy-1,8-dioxo-1,3,4,8-tetrahydro-2H-pyrido[1,2-a]pyrazine-7-carboxylate]	10 to 100 nM
CN(C)C(=O)Nc1cn2ccn(Cc3cccc(Cl)c3)c(=O)c2c(O)c1=O [Example 262, 3-[2-(3-chlorobenzyl)-9-hydroxy-1,8-dioxo-1,8-dihydro-2H-pyrido[1,2-a]pyrazin-7-yl]-1,1-dimethylurea]	< 10 nM
COC(=O)Nc1cn2ccn(Cc3cccc(Cl)c3)c(=O)c2c(O)c1=O [Example 263, methyl[2-(3-chlorobenzyl)-9-hydroxy-1,8-dioxo-1,8-dihydro-2H-pyrido[1,2-a]pyrazin-7-yl]carbamate]	< 10 nM
